Consider 2 molecules from patent US10501497B2, “Cyclic polypeptides, method for obtaining them and the therapeutic use thereof” (AXOLTIS PHARMA, priority 2015, dated 2019).

Values after ≈ are worked out from the molar mass of the structure shown. Where two headings read alike, the source gives them in different places. Bridge positions count the residues as written; N and C are the ends. Peptide text beside a SMILES is read from it.

One data set concerns the target neprylysine (Homo sapiens, UniProt P08473). The data set can be described thus: Enzymatic digestion with neprylysine analysed by LC/MS/MS. In kind it is in vitro ADME. The following applies: for Percentage of digestion / metabolised at 0.5 h: neprylysine; for Area under the curve in the presence of enzyme: neprylysine diluted by a tenth in water; for Area under the control curve (no enzyme): LC/MS/MS; for metabolised at 0.5 h: read-out: Percentage of digestion. The protocol:
A so-called “control” sample without enzyme and effected in parallel was performed to establish an analytical reference for each parameter explored. The polypeptides are diluted in deoxygenated water to maintain the stability of both forms over time. Digestions were analyzed by the LC/MS/MS mass spectrometry technique. The percentage of digestion corresponds, for a given polypeptide, to the percentage of the area under the curve in the presence of enzyme relative to the area under the control curve for the same polypeptide.

Data set [1] can be described thus: physchem. The settings on record: aqueous 0.9% NaCl solution.
Description: Two weighings of 0.5 mg are made in a 1.5 ml micro tube for the polypeptide
The tubes are then vortexed for a few seconds and one drop of each polypeptide solution so obtained is placed on a glass slide for observation under an optical microscope.
Data set [2] can be described thus: physchem. In kind it is physicochemical. The procedure:
In the case of the polypeptide of amino acid sequence: […] Solubility is particularly important for IT injections because there is a limitation of the injection volume, a limit which is much greater than that for peripheral injections, and a limitation in the solvents and solutions that may be used, for example. The use of a 5% glucose solution improves the solubility of the polypeptide of amino acid sequence: […] [SEQ ID NO: 58] by bringing it to around 10 mg/ml, wherein this solution remains an isotonic solution that is compatible with an IT injection.

Broadly, the solubility is the concentration that dissolves in the medium under given conditions. A lower solubility goes with a poorly soluble substance.

Chain of neprylysine (P08473 whole entry): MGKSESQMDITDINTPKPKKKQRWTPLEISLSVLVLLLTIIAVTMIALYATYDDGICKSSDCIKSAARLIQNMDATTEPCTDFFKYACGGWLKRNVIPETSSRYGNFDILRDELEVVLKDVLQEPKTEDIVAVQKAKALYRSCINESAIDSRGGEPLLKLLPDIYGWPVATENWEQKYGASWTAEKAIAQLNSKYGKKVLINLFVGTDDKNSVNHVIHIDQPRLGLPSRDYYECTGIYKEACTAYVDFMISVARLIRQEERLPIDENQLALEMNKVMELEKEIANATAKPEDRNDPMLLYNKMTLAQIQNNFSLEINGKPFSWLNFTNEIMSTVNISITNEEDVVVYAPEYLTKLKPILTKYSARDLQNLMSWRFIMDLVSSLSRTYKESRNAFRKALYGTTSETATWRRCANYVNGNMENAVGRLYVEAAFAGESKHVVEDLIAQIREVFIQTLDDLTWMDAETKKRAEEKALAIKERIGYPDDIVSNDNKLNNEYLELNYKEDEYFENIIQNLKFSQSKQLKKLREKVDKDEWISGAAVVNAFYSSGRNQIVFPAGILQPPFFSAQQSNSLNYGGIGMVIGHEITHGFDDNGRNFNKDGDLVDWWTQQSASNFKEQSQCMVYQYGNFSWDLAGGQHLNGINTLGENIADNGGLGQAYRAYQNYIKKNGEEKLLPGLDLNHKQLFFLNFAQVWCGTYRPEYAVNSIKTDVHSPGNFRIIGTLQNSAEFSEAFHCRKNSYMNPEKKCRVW

Take `N=C(N)NCCC[C@@H]1NC(=O)[C@H](CO)NC(=O)[C@@H](NC(=O)[C@H](CO)NC(=O)[C@H](CO)NC(=O)[C@H](Cc2c[nH]c3ccccc23)NC(=O)CNC(=O)[C@H](CO)NC(=O)[C@@H](N)Cc2c[nH]c3ccccc23)CSSC[C@@H](C(=O)NCC(=O)O)NC(=O)[C@H](CO)NC1=O` [SEQ ID NO: 2, W-S-G-W-S-S-C-S-R-S-C-G] (H-WSGWSSCSRSCG-OH; disulfide 7-11): at neprylysine (T = 0 min), the Percentage of digestion entry is listed as “none”, the “Area under the curve in the presence of enzyme” value (“Area under the curve” for short) amounted to 3220000 and the “Area under the control curve (no enzyme)” value amounted to 3008000. Further, at neprylysine (T = 30 min), the Percentage of digestion is 8.5%, the “Area under the curve” value turned out to be 3401000 and the “Area under the control curve (no enzyme)” value was 3722000. At neprylysine (isolated enzyme neprilysin, T = 30 min), the metabolised at 0.5 h amounted to 8.5%.
Turning to `N=C(N)NCCC[C@H](NC(=O)[C@H](CO)NC(=O)[C@H](CS)NC(=O)[C@H](CO)NC(=O)[C@H](CO)NC(=O)[C@H](Cc1c[nH]c2ccccc12)NC(=O)CNC(=O)[C@H](CO)NC(=O)[C@@H](N)Cc1c[nH]c2ccccc12)C(=O)N[C@@H](CO)C(=O)N[C@@H](CS)C(=O)NCC(=O)O` [SEQ ID NO: 58, W-S-G-W-S-S-C-S-R-S-C-G] (H-WSGWSSCSRSCG-OH; N-terminus and C-terminus assumed), the results for the solubility in the data set “physchem [1]”, in the data set “physchem [2]” (solubility in 5% glucose solution) and in “physchem [2]” (solubility in the physiological liquid) were approximately 2000 µg/mL (≈ 1540 µM), approximately 10000 µg/mL (≈ 7680 µM) and 1000 to 2000 µg/mL (≈ 768 to 1540 µM), respectively. Besides, the Percentage of digestion result is listed as “none” at neprylysine (T = 0 min) and 28% on neprylysine (T = 30 min). In addition, the figures for the “Area under the curve” value at neprylysine (T = 0 min) and on neprylysine (T = 30 min) were 797200 and 576500, respectively. Besides, the “Area under the control curve (no enzyme)” value is listed as 788400 on neprylysine (T = 0 min) and 802800 on neprylysine (T = 30 min). For the same molecule, the metabolised at 0.5 h on neprylysine (isolated neprylysine enzyme, T = 30 min) came to 28%.
